Test results published in US8889659B2, “Pain relief compositions, manufacture and uses” (API Genesis, LLC, priority 2011, dated 2014).

Assays:
pain threshold = conditions: in vivo; cited from earlier work
[1] = cited from earlier work
nasal airway resistance = conditions: intranasal use, cited from earlier work
[2] = Miscibility of diclofenac sodium and capsaicin liquid solutions
Experimental: The table below includes the compositions of 7 completely miscible and transparent diclofenac sodium and capsaicin liquid solutions that were prepared.
It is evident that alcohols (ethyl alcohol and/or ethoxydiglycol) are required to effect the solubility of Diclofenac salts within the oil based ingredients of the capsaicin vehicles.

[3] = Diclofenac sodium solubility studies in solvents; type: physicochemical; conditions: for DICLOFENAC SODIUM SOLUBILITY: 2 wt. % Diclofenac Sodium
Experimental: All solubility samples were prepared in 20 gram sample size. The ingredients of each test samples were weighed to the nearest 0.01 grams. The 20 gram samples were mixed in 50 cc Pyrex glass beakers.
All solubility studies were performed with “Diclofenac Sodium Salt” obtained from Sigma Aldrich, St. Louis, Mo. (CAS #15307-79-6; Sigma-Aldrich Catalog No. D6899; Lot # BCBB7312; M.P. 275-277° C.)
The ingredients were thoroughly mixed at ambient temperatures ranging from 75° F. to 80° F.

blood flow = conditions: […] gel, topical, cited from earlier work
[4] = Solubility of nonivamide / capsaicin in methyl salicylate

CC1CC[C@H](C(C)C)[C@@H](O)C1 (some centres unmarked) [(d)-menthol]
analgesic effect (pain threshold) (pain threshold): completely devoid of any analgesic effect

CC(C)[C@@H]1CC[C@@H](C)C[C@H]1O [(l)-menthol]
analgesic effect (pain threshold) (pain threshold): able to increase pain threshold

CCOC(=O)c1ccc(N)cc1 [Benzocaine]
Aqueous Soluble. [1]: sparingly
Oil Soluble [1]: Soluble

CC12CCC(CC1=O)C2(C)C (centres unmarked) [Camphor]
Oil Soluble [1]: soluble

COc1cc(CNC(=O)CCCC/C=C/C(C)C)ccc1O [Capsaicin, N-(4-hydroxy-3-methoxybenzyl)-8-methylnon-trans-6-enamide]
Aqueous Soluble. [1]: insoluble
Oil Soluble [1]: soluble
solubility in alcohol, methyl salicylate, ether, benzene and chloroform [1]: freely soluble
solubility in water [1]: practically insoluble
reduction in nasal airway resistance (nasal airway resistance): 60%
effectiveness continued for (nasal airway resistance; in most patients): more than 4 months

O=C([O-])Cc1ccccc1Nc1c(Cl)cccc1Cl.[Na+] [Diclofenac Sodium]
concentration with complete solubility/miscibility in the ethyl alcohol capsaicin vehicle [2]: < 2 wt. %
DICLOFENAC SODIUM SOLUBILITY ([3]; Sample 1: 98 wt. % Methyl Salicylate, ambient 75-80° F.): Sparingly Soluble/Insoluble
DICLOFENAC SODIUM SOLUBILITY ([3]; Sample 2: 50 wt. % Methyl Salicylate, 15 wt. % Menthol, 11 wt. % Camphor, 1.5 wt. % Phenol, 20.5 wt. % Macadamia Nut Oil): Sparingly Soluble/Insoluble
DICLOFENAC SODIUM SOLUBILITY ([3]; Sample 3: 98 wt. % Ethyl Alcohol): ^(10)Completely Soluble
DICLOFENAC SODIUM SOLUBILITY ([3]; Sample 4: 98 wt. % Transcutol): ^(10)Completely Soluble
DICLOFENAC SODIUM SOLUBILITY ([3]; Sample 5: 88 wt. % Methyl Salicylate, 10 wt. % Ethyl Alcohol): ^(10)Completely Soluble
DICLOFENAC SODIUM SOLUBILITY ([3]; Sample 6: 50 wt. % Methyl Salicylate, 15 wt. % Menthol, 11 wt. % Camphor, 1.5 wt. % Phenol, 18.5 wt. % Macadamia Nut Oil): Sparingly Soluble/Insoluble
DICLOFENAC SODIUM SOLUBILITY ([3]; Sample 7: 50 wt. % Methyl Salicylate, 15 wt. % Menthol, 11 wt. % Camphor, 1.5 wt. % Phenol, 18.5 wt. % Ethyl Alcohol, 2 wt. % Capsaicin): ^(10)Completely Soluble
DICLOFENAC SODIUM SOLUBILITY ([3]; Sample 8: 50 wt. % Methyl Salicylate, 15 wt. % Menthol, 11 wt. % Camphor, 1.5 wt. % Phenol, 10.5 wt. % Ethyl Alcohol, 2 wt. % Capsaicin): ^(10)Completely Soluble
effect of heating to ˜35° C. on solubility ([3]; mixtures where solubility was sparingly soluble to insoluble): did not have a significant impact

CCO [Ethyl Alcohol]
Aqueous Soluble. [1]: miscible
Oil Soluble [1]: soluble

CC1CCC(C(C)C)C(O)C1 (centres unmarked) [Menthol]
Oil Soluble [1]: soluble
blood flow remains reduced (blood flow; 10 minutes after application): ~20%
reduction of blood flow (blood flow; within 60 seconds of application): 35%

COC(=O)c1ccccc1O [Methyl Salicylate, Methyl salicylate]
Aqueous Soluble. [1]: sparingly

CCCCCCCCC(=O)NCc1ccc(O)c(OC)c1 [Nonivamide, vanillylamide of n-nonanoic acid]
solubility levels in methyl salicylate [4]: exceeded 25 wt. %
precipitation from 30 wt. % solution in methyl salicylate ([4]; after 2 weeks of storage at 5° C.): no evidence of any precipitation
precipitation from 30 wt. % solution in methyl salicylate ([4]; powder added at ambient temperature, cooled to −10° C. for 10 hours): did not result in the precipitation

CCCNC(C)C(=O)Nc1ccccc1C (centres unmarked) [Prilocaine]
Aqueous Soluble. [1]: sparingly
Oil Soluble [1]: soluble
